What is called DC50 is the midpoint of the concentration-degradation curve. High values mean a less potent degrader, low ones a more potent degrader.

This assay deals with T1, GSPT1 (Homo sapiens, UniProt P15170).
T1 construct: HiBiT-tagged cells were generated using CRISPR-Cas12a technology; endogenous in cells; host or cells: HEK293 (endogenous GSPT1 locus edited with HiBiT knock-in)
Briefly: GSPT1 reporter degradation assay (HEK293 hGSPT1 HiBiT-tagged cells). It counts as cell-based. The conditions noted are these: 24 hour incubation. The procedure: HEK293_hGSPTl_HiBiT-tagged cells were generated using CRISPR-Cas12a technology. Briefly, ˜400,000 HEK293 cells were transiently co-transfected with precomplexed ribonuclear proteins (RNPs) consisting of 80 pmol of crRNA (IDT), 62 pmol of Cas12a protein (IDT), 3 μg of ssODN donor (IDT; Alt® modifications), 78 pmol of electroporation enhancer (IDT), and 200 ng of pMaxGFP (Lonza). The transfection was performed via nucleofection (Lonza, 4D-Nucleofector X-unit) using solution P3 and program CM-130 in a ([…]) cuvette. Five days post-nucleofection, cells were single-cell-sorted for GFP+(transfected) cells by FACs in 96-well plates and clonally selected. Clones were screened and verified for the desired modification via targeted deep sequencing using gene-specific primers with partial Illumina adapter overhangs as previously described. In brief, clonal cell pellets were harvested, lysed, and used to generate gene-specific amplicons with partial Illumina adapters in PCR #1. Amplicons were indexed in PCR #2 and pooled with other targeted amplicons for other loci to create sequence diversity. Additionally, 10% PhiX sequencing control V3 (Illumina) was added to the pooled amplicon library prior to running the sample on a Miseq Sequencer System (Illumina) to generate paired 2×250 bp reads. Samples were demultiplexed using the index sequences, fastq files were generated, and NGS analysis was performed using CRIS.py. Final clones were authenticated using the PowerPlex fusion system (Promega) and tested negative for mycoplasma by the MycoAlertTMPlus mycoplasma detection kit (Lonza).
Editing construct sequences and screening primers are outlined below (sequence from 5′ to 3′). hGSPT1Cas12acrRNA, CAGE635.GSPT1.g1: […]; CAGE635.g1.anti.ssODN: ttcctcacagtattgtgcagggtcatcaagaaaatgctta[…] CAGCCGCTCACgtcCttctctggaaccagtttcagaacttttccaattgcaatggtcttacctagaaatgaaattttaa (HiBiT tag and silent blocking modifications to prevent Cas12a recutting after integration are in upper case); CAGE635.hGSPT1.DS.F: […]; CAGE635.hGSPT1.DS.R: GTGAA GTAGGCTTCTGCAGTC.
The GSPT1 degradation assay was carried out by harvesting the HEK 293T reporter cell lines and resuspending the cells in media formulated for reduced background fluorescence (FluoroBrite; Thermo Fisher). The respective cell lines were seeded at a density of 8,000 cells/well into white-opaque 384-well optical grade assay tissue culture plates (Greiner 781080-20). The cells were incubated overnight at 37° C. to allow for attachment to the assay plate. Dilutions of the compounds were prepared in DMSO from 10 mM compound stocks. Test compounds were added in a 10-point dilution series (typically 10 μM to 100 pM) using a TECAN D300e Digital Dispenser with an upper limit of 0.5% final DMSO. Plates were centrifuged at 320×g for 2 minutes at room temperature, and subsequently incubated at 37° C.
After 24 hour incubation with the compounds, the plates were allowed to cool to room temperature for 10 minutes. 30 μL of HiBiT lytic buffer+1:50 HiBiT substrate Solution were added to each well. Plates were centrifuged at 320×g for 2 minutes at room temperature and then incubated with shaking at room temperature for 10 minutes covered with foil. Plates were read on a CLARIOstar microplate reader (BMG LabTech), measuring at 450 nm (donor emission) and 610 nm or 630 nm (acceptor emission). The DC50 values were determined by regression to best fit four-parameter logistic curves using GraphPad Prism.
Background: The HiBiT peptide binds its large partner to form an active luciferase.

T1 sequence (Q96SW2 whole entry partner): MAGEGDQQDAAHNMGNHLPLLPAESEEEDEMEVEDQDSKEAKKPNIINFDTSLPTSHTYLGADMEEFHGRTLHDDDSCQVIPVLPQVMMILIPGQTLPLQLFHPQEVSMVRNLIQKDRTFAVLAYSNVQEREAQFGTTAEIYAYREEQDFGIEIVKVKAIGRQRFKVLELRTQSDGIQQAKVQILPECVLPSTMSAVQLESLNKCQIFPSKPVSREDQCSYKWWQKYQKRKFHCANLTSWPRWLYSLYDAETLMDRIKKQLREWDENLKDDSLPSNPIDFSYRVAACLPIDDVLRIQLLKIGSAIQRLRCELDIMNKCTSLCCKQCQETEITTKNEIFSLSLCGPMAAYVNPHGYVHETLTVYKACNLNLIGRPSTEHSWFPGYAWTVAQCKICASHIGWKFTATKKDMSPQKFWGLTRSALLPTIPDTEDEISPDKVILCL
T1 sequence (Q16531 whole entry partner): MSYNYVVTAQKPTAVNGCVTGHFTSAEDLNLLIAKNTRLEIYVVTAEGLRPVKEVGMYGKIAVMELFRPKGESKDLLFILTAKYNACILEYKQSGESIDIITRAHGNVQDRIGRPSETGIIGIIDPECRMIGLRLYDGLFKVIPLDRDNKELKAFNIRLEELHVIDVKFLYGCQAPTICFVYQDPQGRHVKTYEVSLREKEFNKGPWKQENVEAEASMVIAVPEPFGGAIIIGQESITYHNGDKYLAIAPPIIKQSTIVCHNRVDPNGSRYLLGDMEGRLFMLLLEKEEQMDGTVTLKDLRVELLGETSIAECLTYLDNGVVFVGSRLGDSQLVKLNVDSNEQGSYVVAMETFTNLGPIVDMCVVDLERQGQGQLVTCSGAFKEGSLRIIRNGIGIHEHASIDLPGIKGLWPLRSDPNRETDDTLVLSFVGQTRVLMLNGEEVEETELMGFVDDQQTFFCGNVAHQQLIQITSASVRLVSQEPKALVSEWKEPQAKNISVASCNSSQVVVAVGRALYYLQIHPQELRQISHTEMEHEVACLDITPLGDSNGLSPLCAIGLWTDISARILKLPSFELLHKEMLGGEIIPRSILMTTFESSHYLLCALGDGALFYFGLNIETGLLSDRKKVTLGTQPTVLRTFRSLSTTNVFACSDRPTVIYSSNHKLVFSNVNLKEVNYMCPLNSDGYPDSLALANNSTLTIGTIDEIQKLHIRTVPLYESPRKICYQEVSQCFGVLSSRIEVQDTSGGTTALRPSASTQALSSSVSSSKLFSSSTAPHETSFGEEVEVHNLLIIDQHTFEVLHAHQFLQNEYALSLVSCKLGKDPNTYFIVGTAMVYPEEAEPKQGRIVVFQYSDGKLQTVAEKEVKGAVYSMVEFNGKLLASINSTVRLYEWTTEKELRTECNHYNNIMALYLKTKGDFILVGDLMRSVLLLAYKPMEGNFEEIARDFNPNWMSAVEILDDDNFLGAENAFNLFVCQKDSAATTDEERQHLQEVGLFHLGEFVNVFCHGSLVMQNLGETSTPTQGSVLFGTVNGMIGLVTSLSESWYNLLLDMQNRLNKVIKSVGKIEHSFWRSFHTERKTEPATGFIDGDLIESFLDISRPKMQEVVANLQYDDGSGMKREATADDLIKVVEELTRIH
T1 sequence (P15170 whole entry): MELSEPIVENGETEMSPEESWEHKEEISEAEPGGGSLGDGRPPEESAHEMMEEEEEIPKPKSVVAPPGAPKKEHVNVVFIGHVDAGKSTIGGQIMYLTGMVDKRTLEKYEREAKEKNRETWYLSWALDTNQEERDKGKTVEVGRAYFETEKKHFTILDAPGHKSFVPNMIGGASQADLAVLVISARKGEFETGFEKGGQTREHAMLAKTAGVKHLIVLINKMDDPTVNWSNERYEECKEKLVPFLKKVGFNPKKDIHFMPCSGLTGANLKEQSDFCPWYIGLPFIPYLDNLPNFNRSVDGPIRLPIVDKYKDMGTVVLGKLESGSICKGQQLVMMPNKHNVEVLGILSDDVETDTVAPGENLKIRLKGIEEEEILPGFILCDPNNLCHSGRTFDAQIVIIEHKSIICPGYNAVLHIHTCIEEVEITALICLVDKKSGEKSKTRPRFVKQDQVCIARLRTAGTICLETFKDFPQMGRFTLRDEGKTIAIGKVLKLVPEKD

For `O=C1CCC(N2Cc3cc(O[C@H]4CCCC[C@@H]4N4CC(c5ccc6cccnc6c5)C4)ccc3C2=O)C(=O)N1` (stereo partly drawn) [Compound 87-B, 3-(1-oxo-5-(((1S,2S)-2-(3-(quinolin-7-yl)azetidin-1-yl)cyclohexyl)oxy)isoindolin-2-yl)piperidine-2,6-dione], the half-maximal degradation concentration (DC50) is more than 30 µM.
`CC12CC(C(=O)N3CCC(C4CN([C@H]5CCCC[C@@H]5Oc5ccc6c(c5)CN(C5CCC(=O)NC5=O)C6=O)C4)CC3)(C1)C2` (stereo partly drawn) [Compound 28-A, 3-(5-(((1S,2S)-2-(3-(1-(3-methylbicyclo[1.1.1]pentane-1-carbonyl)piperidin-4-yl)azetidin-1-yl)cyclohexyl)oxy)-1-oxoisoindolin-2-yl)piperidine-2,6-dione] registered a DC50 of more than 30 µM.
On to `O=C1CCC(N2Cc3cc(O[C@H]4CCCC[C@@H]4N4CC(C5CCOCC5F)C4)ccc3C2=O)C(=O)N1` (stereo partly drawn) [Compound 55-A, 3-(5-(((1S,2S)-2-(3-(3-fluorotetrahydro-2H-pyran-4-yl)azetidin-1-yl)cyclohexyl)oxy)-1-oxoisoindolin-2-yl)piperidine-2,6-dione], for which the 50% degradation concentration (DC50) was more than 30 µM.
Next, `CC1(C(=O)N2CCC(C3CN([C@H]4CCCC[C@@H]4Oc4ccc5c(c4)CN(C4CCC(=O)NC4=O)C5=O)C3)CC2)CCCC1` (stereo partly drawn) [Compound 33-A, 3-(5-(((1S,2S)-2-(3-(1-(1-methylcyclopentane-1-carbonyl)piperidin-4-yl)azetidin-1-yl)cyclohexyl)oxy)-1-oxoisoindolin-2-yl)piperidine-2,6-dione]: more than 30 µM; `O=C1CCC(N2Cc3cc(O[C@H]4CCCC[C@@H]4N4CC(C5CCN(C(=O)C6(F)CC6)CC5)C4)ccc3C2=O)C(=O)N1` (stereo partly drawn) [Compound 42-A, 3-(5-(((1S,2S)-2-(3-(1-(1-fluorocyclopropane-1-carbonyl)piperidin-4-yl)azetidin-1-yl)cyclohexyl)oxy)-1-oxoisoindolin-2-yl)piperidine-2,6-dione]: more than 30 µM.
Next, `O=C1CCC(N2Cc3cc(O[C@H]4CCCC[C@@H]4N4CC(C5CCOC5)C4)ccc3C2=O)C(=O)N1` (stereo partly drawn) [Compound 14-A, 3-(1-oxo-5-(((1S,2S)-2-(3-(tetrahydrofuran-3-yl)azetidin-1-yl)cyclohexyl)oxy)isoindolin-2-yl)piperidine-2,6-dione]: more than 30 µM.
Turning to `CC1CC1C(=O)N1CCC(C2CN([C@H]3CCCC[C@@H]3Oc3ccc4c(c3)CN(C3CCC(=O)NC3=O)C4=O)C2)CC1` (stereo partly drawn) [Compound 35-A, 3-(5-(((1S,2S)-2-(3-(1-(2-methylcyclopropane-1-carbonyl)piperidin-4-yl)azetidin-1-yl)cyclohexyl)oxy)-1-oxoisoindolin-2-yl)piperidine-2,6-dione], the DC50 is more than 30 µM.
In the case of `CC1(C(=O)N2CCC(C3CN([C@H]4CCCC[C@@H]4Oc4ccc5c(c4)CN(C4CCC(=O)NC4=O)C5=O)C3)CC2)COC1` (stereo partly drawn) [Compound 29-A, 3-(5-(((1S,2S)-2-(3-(1-(3-methyloxetane-3-carbonyl)piperidin-4-yl)azetidin-1-yl)cyclohexyl)oxy)-1-oxoisoindolin-2-yl)piperidine-2,6-dione], the DC50 was more than 30 µM.
The figure for `N#CC1(C(=O)N2CCC(C3CN([C@H]4CCCC[C@@H]4Oc4ccc5c(c4)CN(C4CCC(=O)NC4=O)C5=O)C3)CC2)CCC1` (stereo partly drawn) [Compound 30-A, 1-(4-(1-((1S,2S)-2-((2-(2,6-dioxopiperidin-3-yl)-1-oxoisoindolin-5-yl)oxy)cyclohexyl)azetidin-3-yl)piperidine-1-carbonyl)cyclobutane-1-carbonitrile] is more than 30 µM; for `O=C1CCC(N2Cc3cc(O[C@H]4CCCC[C@@H]4N4CC(C5CCN(C(=O)CC6CC6)CC5)C4)ccc3C2=O)C(=O)N1` (stereo partly drawn) [Compound 34-A, 3-(5-(((1S,2S)-2-(3-(1-(2-cyclopropylacetyl)piperidin-4-yl)azetidin-1-yl)cyclohexyl)oxy)-1-oxoisoindolin-2-yl)piperidine-2,6-dione] it is more than 30 µM; for `O=C1CCC(N2Cc3cc(O[C@H]4CCCC[C@@H]4N4CC(C5CCN(C(=O)C6CC(F)(F)C6)CC5)C4)ccc3C2=O)C(=O)N1` (stereo partly drawn) [Compound 32-A, 3-(5-(((1S,2S)-2-(3-(1-(3,3-difluorocyclobutane-1-carbonyl)piperidin-4-yl)azetidin-1-yl)cyclohexyl)oxy)-1-oxoisoindolin-2-yl)piperidine-2,6-dione] it is more than 30 µM.
In the case of `CC1(C(=O)N2CCC(C3CN([C@H]4CCCC[C@@H]4Oc4ccc5c(c4)CN(C4CCC(=O)NC4=O)C5=O)C3)CC2)CC1` (stereo partly drawn) [Compound 31-A, 3-(5-(((1S,2S)-2-(3-(1-(1-methylcyclopropane-1-carbonyl)piperidin-4-yl)azetidin-1-yl)cyclohexyl)oxy)-1-oxoisoindolin-2-yl)piperidine-2,6-dione], the half-maximal degradation concentration (DC50) is more than 30 µM.
Next, `N#CC1(C(=O)N2CCC(C3CN([C@H]4CCCC[C@@H]4Oc4ccc5c(c4)CN(C4CCC(=O)NC4=O)C5=O)C3)CC2)CC1` (stereo partly drawn) [Compound 27-A, 1-(4-(1-((1S,2S)-2-((2-(2,6-dioxopiperidin-3-yl)-1-oxoisoindolin-5-yl)oxy)cyclohexyl)azetidin-3-yl)piperidine-1-carbonyl)cyclopropane-1-carbonitrile]: more than 30 µM; `O=C1CCC(N2Cc3cc(O[C@H]4CCCC[C@@H]4N4CC(C5CCN(S(=O)(=O)C6CCC6)CC5)C4)ccc3C2=O)C(=O)N1` (stereo partly drawn) [Compound 57-A, 3-(5-(((1S,2S)-2-(3-(1-(cyclobutylsulfonyl)piperidin-4-yl)azetidin-1-yl)cyclohexyl)oxy)-1-oxoisoindolin-2-yl)piperidine-2,6-dione]: more than 30 µM.

For the origin of these results see US20250100996A1, “HETEROCYCLOALKYL AND HETEROARYL COMPOUNDS AND PHARMACEUTICAL COMPOSITIONS THAT MODULATE IKZF2” (Plexium, Inc., priority 2021, published 2025).
